From article PMC4703387, “Identification of the Calmodulin-Binding Domains of Fas Death Receptor” (PLoS ONE, 2016)
Where no end group is shown, it is not given here.

Tests used:
Ca^2+/CaM [1] = molecular target: T1, Ca^2+/CaM (Homo sapiens, UniProt P0DP23); assay: Isothermal titration calorimetry (ITC), Ca^2+/CaM titrated into peptide; assay type: binding
T1 construct: made in house
Procedure: Thermodynamic parameters of Ca^2+/CaM binding to Fas-Pep1 and Fas-Pep2 peptides were determined using an Auto-iTC200 microcalorimeter (Malvern Instruments). […] Heat of reaction of Ca^2+/CaM was measured over 19 injections at 25°C for Fas-Pep1 or 35°C for Fas-Pep2. Heat of dilution was measured by titrating Ca^2+/CaM into buffer. Data analysis was performed using the Microcal Origin package (ver. 8.1). Baseline corrections were performed by subtracting heat of dilution from the raw Ca^2+/CaM-peptide titration data. Binding curves were analyzed and dissociation constants (Kd) were determined by nonlinear least-square fitting of the baseline-corrected data. The formula used to fit the data as one binding site is: ΔQ(i)=Q(i)+(dVi/Vo)[(Q(i)+Q(i−1))/2]–Q(i–1) where ΔQ(i) is the heat released at i^th injection, Q(i) is the total heat content of the solution, dVi is injection volume, and Vo is total volume. Three replicate titration experiments were typically performed for each peptide.
Although it is recognized that the most frequent mechanism of CaM binding to target proteins involves the hydrophobic surfaces on the N- and C-terminal lobes,[23] electrostatic interactions also contribute to the formation and stabilization of CaM-protein complexes since CaM is acidic and CaM-binding motifs are often basic.[44, 45] The thermodynamic parameters of binding and the relative contribution of hydrophobic vs. electrostatic factors are often assessed by ITC methods, yielding various parameters such as dissociation constant (Kd), stoichiometry (n), enthalpy change (ΔH°) and entropy change (ΔS°). The thermodynamic parameters of Ca^2+/CaM binding to Fas-Pep1 and Fas-Pep2 were assessed by ITC.

Ca^2+/CaM [2] = molecular target: T1, Ca^2+/CaM; assay: Circular dichroism (CD) spectroscopy; assay type: physicochemical; conditions: 25°C, 10 mM HEPES (pH 7), 50 mM KCl, 2.5 mM CaCl2
Procedure: CD spectra were acquired on a Jasco J815 spectropolarimeter at 25°C from 260 to 185 nm. Scanning rate was set to 50 nm/min. Loading concentrations were ~16–20 μM for free peptides, 18 μM for free Ca^2+/CaM and 10 μM for the complexes in a buffer containing 10 mM HEPES (pH 7), 50 mM KCl, and 2.5 mM CaCl2. The background signal from the buffer solution was subtracted from each spectrum. Ca^2+/CaM complexes with peptides were run on gel filtration column (as described above) to ensure high purity and homogeneity prior to collection of the CD spectra.

Ca^2+/CaM-C = molecular target: T2, Ca^2+/CaM-C (Homo sapiens, UniProt P0DP23); assay: NMR titration (2D 1H-15N HSQC) of isolated C-terminal lobe; assay type: binding; conditions: 1H-15N HSQC titration
T2 construct: ^15N-labled samples of the isolated Ca^2+/CaM-N and Ca^2+/CaM-C domains; made in house
Procedure: NMR data were collected at 35°C on a Bruker Avance II (700 MHz ^1H) spectrometer equipped with a cryogenic triple-resonance probe, processed with NMRPIPE [35] and analyzed with NMRVIEW [36] or CCPN Analysis. […] For signal assignments of the complexes, ^13C-, ^15N-, or ^13C-/^15N-labeled Ca^2+/CaM at ~400–500 μM was mixed with unlabeled Fas-Pep1 (in 100% DMSO-d6) or Fas-Pep2 at 1.5:1 peptide:Ca^2+/CaM. […] The backbone atom resonances of Ca^2+/CaM complexes with Fas-Pep1 and Fas-Pep2 were assigned using HNCA, HN(CO)CA, HNCACB, HNCO, HN(CO)CACB and ^15N-edited NOESY-HSQC and TOCSY-HSQC experiments. These experiments have been also collected on ^15N-, or ^13C-/^15N-labeled Fas-Pep2 in complex with unlabeled Ca^2+/CaM to confirm the α-helical character of Fas-Pep2 when bound to Ca^2+/CaM. […] Combined ^1H-^15N chemical shift changes were calculated as ΔδHN = [(ΔδH)^2+(ΔδN/5)^2]^1/2, where ΔδH and ΔδN are the ^1H and ^15N chemical shift changes, respectively. Kd values were calculated by non-linear least-square fitting algorithm in Origin software (OriginLab, Northampton, MA) using the equation: ΔδHN=ΔδHN^max((Kd+L0+P0)−((Kd+L0+P0)^2−4*P0*L0)^0.5)/(2*P0) where ΔδHN^max is the chemical shift change between complex and free protein, L0 total concentration of ligand, and P0 total concentration of protein. […]

Ca^2+/CaM [3] = molecular target: T1, Ca^2+/CaM; assay: 2D 1H-13C HMQC of 13C-labeled Ca^2+/CaM methionine methyl groups; assay type: binding
Excerpt: In the second approach, we assessed the role of hydrophobic surfaces located on the N- and C-terminal lobes of Ca^2+/CaM. These hydrophobic surfaces, which contribute to the flexibility and function of Ca^2+/CaM, are only formed when Ca^2+ is bound.[24] Ca^2+ binding induces a helical rearrangement, leading to exposure of eight methionine (Met) residues.[46, 47] Met residues are essential for the unique promiscuous binding behavior of Ca^2+/CaM to target proteins.[47] The methyl groups of Met residues are useful “NMR reporters” and widely used to probe for target binding.[34, 42, 47–49] Five Met residues (36, 51, 71, 72 and 76) are located in the N-terminal lobe and four (109, 124, 144, and 145) are located within the hydrophobic patch in the C-terminal lobe (Fig 8A). To assess whether the N- and C-terminal hydrophobic surfaces contribute to the binding of FasDD peptides, we collected 2D ^1H-^13C HMQC data on a uniformly ^13C-labeled Ca^2+/CaM sample as titrated with Fas-Pep1 or Fas-Pep2. Addition of a substoichiometric amount of Fas-Pep1 (0.5:1 peptide:Ca^2+/CaM) led to a decrease in the intensity of ^1H-^13C signals of M51, M71, M72, M109, M124 and M145 (Fig 8B, upper panel). Minimal or no chemical shift changes have been observed for signals corresponding to M76 and M144. Further addition of Fas-Pep1 led to appearance of new signals (Fig 8B). […]

[4] = as Kd (ITC), 25°C Fas-Pep1, 35°C Fas-Pep2

VQDTAEQKVQLLRNWHQLHGKKEAYDTLIKDLKKANLC [Fas-Pep2]
thermodynamic driving force of binding (Ca^2+/CaM [1]; ITC): enthalpically driven
n (stoichiometry, ITC) (Ca^2+/CaM [1]; as Kd (ITC)): 0.9
ΔH° (Ca^2+/CaM [1]; [4]): -14.2 kcal/mol
ΔS° (Ca^2+/CaM [1]; [4]): -18.8 cal/mol/K
change in CD signal at 208 and 222 nm of Ca^2+/CaM on peptide binding (Ca^2+/CaM [2]; complex 10 μM): An increase in the intensity of the CD signal at 208 and 222 nm
secondary structure of free peptide/protein (Ca^2+/CaM [2]; far-UV CD, ~16–20 μM peptide, 18 μM Ca^2+/CaM): random coil
CSPs on Ca^2+/CaM-C (Ca^2+/CaM-C): significant CSPs for numerous residues
CSPs of Met resonances on binding (Ca^2+/CaM [3]): Notable CSPs are also observed in all of the ^1H-^13C resonances of Met residues
